Entries after “also recorded” stand apart in the source; their conditions may differ.
Experiments:
ADAR1p110 = target: T1, ADAR1p110 (Homo sapiens, UniProt P55265); assay: In vitro editing assay with recombinant ADAR1p110 and synthetic dsRNA; assay type: biochemical; details: for IC50: ADAR1p110, dose-dependent in vitro editing assay; for Inhibition of ADAR1p110 editing: in vitro editing assay, result in words
T1 construct: HAT (N); made in house; host or cells: Sf9 cells (baculovirus)
T1 sequence (P55265 1-931 isoform P55265-5): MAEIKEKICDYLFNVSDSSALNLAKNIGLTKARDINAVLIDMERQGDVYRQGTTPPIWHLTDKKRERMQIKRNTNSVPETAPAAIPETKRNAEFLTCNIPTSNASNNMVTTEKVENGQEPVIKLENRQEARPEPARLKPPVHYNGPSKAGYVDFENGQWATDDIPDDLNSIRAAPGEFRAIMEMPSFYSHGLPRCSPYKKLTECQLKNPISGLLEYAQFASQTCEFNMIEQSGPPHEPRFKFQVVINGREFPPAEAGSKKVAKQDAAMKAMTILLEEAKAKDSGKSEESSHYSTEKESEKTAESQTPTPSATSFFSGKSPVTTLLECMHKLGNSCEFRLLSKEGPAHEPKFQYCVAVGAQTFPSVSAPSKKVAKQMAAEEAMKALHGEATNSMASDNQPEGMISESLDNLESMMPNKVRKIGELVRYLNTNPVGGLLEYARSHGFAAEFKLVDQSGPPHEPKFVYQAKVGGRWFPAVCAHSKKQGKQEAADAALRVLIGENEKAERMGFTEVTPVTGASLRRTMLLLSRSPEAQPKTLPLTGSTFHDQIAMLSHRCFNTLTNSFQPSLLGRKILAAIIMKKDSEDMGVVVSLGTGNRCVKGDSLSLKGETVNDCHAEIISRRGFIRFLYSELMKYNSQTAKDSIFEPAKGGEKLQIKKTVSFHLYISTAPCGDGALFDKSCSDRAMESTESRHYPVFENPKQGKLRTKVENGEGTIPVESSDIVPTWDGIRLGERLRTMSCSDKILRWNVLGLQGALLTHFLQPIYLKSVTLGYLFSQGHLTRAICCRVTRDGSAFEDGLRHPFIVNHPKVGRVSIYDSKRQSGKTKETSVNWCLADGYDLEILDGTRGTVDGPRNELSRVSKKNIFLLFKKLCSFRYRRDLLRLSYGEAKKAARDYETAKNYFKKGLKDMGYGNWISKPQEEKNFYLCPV
Method: In vitro editing assay using purified HAT-ADAR1p110 and a synthetic dsRNA was conducted at varying concentrations of ADAR1i-124. The editing efficiency was determined by the guanosine peak replacing the adenosine peak of cDNA sequencing chromatograms.
The in vitro editing reaction mixture, containing 5 nM of telomere RNA:RNA duplex substrates and 75 nM of HAT-ADAR1p110-WT, FLAG-ADAR1p110-WT, or HA-ADAR1p110-EAA protein, was incubated at 37° C. for 2 h in in vitro editing buffer I (20 mM HEPES-KOH PH 7.5, 100 mM NaCl, 0.01% NP-40, 5% glycerol, 1 mM DTT). For editing of RNA:DNA hybrid substrates, in vitro editing buffer II (20 mM HEPES-KOH PH 7.5, 20 mM NaCl, 0.01% NP-40, 5% glycerol, 1 mM DTT) was used. Edited RNA or DNA strands were purified using Dynabeads MyOne Streptavidin C1 (Thermo Fisher Scientific). To remove opposite RNA or DNA strands, rNase H (NEB) or TURBO dNase (Thermo Fisher Scientific) was used, respectively. For sequencing of edited substrates, reverse transcription-PCR was carried out for RNA strands, while PCR was carried out for DNA strands. RT reactions were carried out using SuperScript III Reverse Transcriptase (Thermo Fisher Scientific), and PCR reactions were performed using Platinum Taq DNA polymerase (Thermo Fisher Scientific). PCR products were sequenced using a specific sequencing primer, and the ratio of A and G peaks in the chromatograms were analyzed by CodonCode Aligner (CodonCode Corporation).
In a previous study, the 54 compounds identified in the high-throughput screen were further tested in the in vitro editing assay described in Examples 2 and 3. The in vitro editing reaction mixture, containing 5 nM of telomere RNA:RNA duplex substrates and 75 nM of HAT-ADAR1p110-WT, FLAG-ADAR1p110-WT, or HA-ADAR1p110-EAA protein, was incubated at 37° C. for 2 h in in vitro editing buffer I (20 mM HEPES-KOH PH 7.5, 100 mM NaCl, 0.01% NP-40, 5% glycerol, 1 mM DTT) with 10 microM test compound. For editing of RNA:DNA hybrid substrates, in vitro editing buffer II (20 mM HEPES-KOH PH 7.5, 20 mM NaCl, 0.01% NP-40, 5% glycerol, 1 mM DTT) was used. Edited RNA or DNA strands were purified using Dynabeads MyOne Streptavidin C1 (Thermo Fisher Scientific). To remove opposite RNA or DNA strands, Rnase H (NEB) or TuRBO Dnase (Thermo Fisher Scientific) was used, respectively. For sequencing of edited substrates, reverse transcription-PCR was carried out for RNA strands, while PCR was carried out for DNA strands. RT reactions were carried out using SuperScript III
Reverse Transcriptase (Thermo Fisher Scientific), and PCR reactions were performed using Platinum Taq DNA polymerase (Thermo Fisher Scientific). PCR products were sequenced using a specific sequencing primer, and the ratio of A and G peaks in the chromatograms were analyzed by CodonCode Aligner (CodonCode Corporation).

ADAR2 = target: T2, ADAR2 (Homo sapiens, UniProt P78563); assay: In vitro editing assay, ADAR2; assay type: biochemical; details: ADAR2 mediated A-to-I editing in vitro
T2 sequence (P78563 1-741): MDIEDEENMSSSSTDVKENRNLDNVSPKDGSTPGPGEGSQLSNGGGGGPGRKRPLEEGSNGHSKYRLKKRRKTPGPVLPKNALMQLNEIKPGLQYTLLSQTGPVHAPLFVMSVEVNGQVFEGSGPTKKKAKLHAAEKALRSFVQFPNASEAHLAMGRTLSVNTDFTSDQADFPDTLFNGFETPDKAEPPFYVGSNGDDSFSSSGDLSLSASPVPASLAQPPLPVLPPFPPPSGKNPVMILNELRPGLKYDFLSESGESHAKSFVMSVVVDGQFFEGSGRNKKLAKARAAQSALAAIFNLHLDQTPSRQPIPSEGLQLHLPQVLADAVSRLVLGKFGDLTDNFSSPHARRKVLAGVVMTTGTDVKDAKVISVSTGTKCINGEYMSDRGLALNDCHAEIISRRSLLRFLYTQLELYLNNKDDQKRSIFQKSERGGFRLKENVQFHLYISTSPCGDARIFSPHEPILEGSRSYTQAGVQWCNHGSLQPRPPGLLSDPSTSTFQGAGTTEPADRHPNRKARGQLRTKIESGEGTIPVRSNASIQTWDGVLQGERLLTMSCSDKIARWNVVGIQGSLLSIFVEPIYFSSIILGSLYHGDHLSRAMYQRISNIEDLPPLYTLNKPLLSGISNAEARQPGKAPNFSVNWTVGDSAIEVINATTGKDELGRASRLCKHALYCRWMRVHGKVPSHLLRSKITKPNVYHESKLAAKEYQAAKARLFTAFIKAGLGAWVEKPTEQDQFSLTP

## N#Cc1ccc(NC(=O)c2sc3ccccc3c2Cl)cc1 [ADAR1i-13, 3-chloro-N-(4-cyanophenyl)-1-benzothiophene-2-carboxamide]
ADAR1p110
  IC50: 10 to 20 µM
  Inhibition of ADAR1p110 editing: inhibited ADAR1p110 editing of all three substrates tested, including the DNA:RNA hybrid substrate
ADAR1p110; recombinant ADAR1p110, matched and mismatched dsRNA substrates, 10 microM test compound
  Substrate preference of editing inhibition (matched vs A-C mismatched dsRNA): preferentially inhibited matched adenosines
ADAR2
  ADAR2 inhibitory activity: No ADAR2 inhibitory activity was detected; also recorded: did not inhibit ADAR2 mediated A-to-I editing in vitro

## N#Cc1ccccc1NC(=O)c1sc2ccccc2c1Cl [ADAR1i-120]
ADAR1p110
  IC50: 10 to 20 µM
  Inhibition of ADAR1p110 editing: ADAR1 inhibitory activities
ADAR2
  ADAR2 inhibitory activity: No ADAR2 inhibitory activity was detected

## N#Cc1ccc(NC(=O)c2c(Cl)c3ccccc3n2CO)cc1 [ADAR1i-124]
ADAR1p110
  IC50: 10 to 20 µM
  Inhibition of ADAR1p110 editing: ADAR1 inhibitory activities; also recorded: inhibited both ADAR1p150 and ADAR1p-110
ADAR2
  ADAR2 inhibitory activity: No ADAR2 inhibitory activity was detected; also recorded: did not inhibit ADAR2 mediated A-to-I editing in vitro; also recorded: No ADAR2 inhibition detected

From patent publication US20260272878A1, “ADAR1 INHIBITORS AND USES THEREOF” (THE WISTAR INSTITUTE OF ANATOMY AND BIOLOGY, priority 2023, published 2026)
